In data set [1] the target is C-C chemokine receptor type 5 (Homo sapiens, UniProt P51681). Description: Inhibition of [125I]MIP-1beta binding to CCR5 expressed in HEK293 cells. It is filed as cell-based.
The target of data set [2] is T1, hERG (KCNH2) (Homo sapiens, UniProt Q12809). Nature of the data set: Inhibition of [3H]dofetilide binding to HERG expressed in HEK293 cells at 300 nM. It is filed as cell-based. The conditions noted are these: HEK293 cells that express hERG, probe [3H]dofetilide. (In general: Block of hERG is tested as a sign of cardiac risk.)
Data set [3] in a line: Dissociation constant, pKa of the compound. It is filed as physicochemical.
For data set [4], the target named is T1, hERG (KCNH2). Description: Inhibition of [3H]dofetilide binding to HERG expressed in HEK293 cells at 100 nM. It counts as cell-based. The conditions noted are these: HEK293 cells that express hERG, probe [3H]dofetilide.
In data set [5] the test system is Human immunodeficiency virus. Description: Antiviral activity against HIV BaL in PM1 cell. The conditions noted are these: Human immunodeficiency virus 1, BaL. It is filed as functional.
Data set [6] has as its target Voltage-gated inwardly rectifying potassium channel KCNH2 (Homo sapiens, UniProt Q12809). Description: Inhibition of [3H]dofetilide binding to HERG expressed in HEK293 cells. It is filed as cell-based.
The nature of data set [7]: Distribution coefficient, log D of the compound. It counts as physicochemical. The conditions noted are these: octanol/water.

15 molecules from ChEMBL document CHEMBL1148680 (Bioorg Med Chem Lett, 2006) can be followed below.

Chain of C-C chemokine receptor type 5 (P51681 whole entry): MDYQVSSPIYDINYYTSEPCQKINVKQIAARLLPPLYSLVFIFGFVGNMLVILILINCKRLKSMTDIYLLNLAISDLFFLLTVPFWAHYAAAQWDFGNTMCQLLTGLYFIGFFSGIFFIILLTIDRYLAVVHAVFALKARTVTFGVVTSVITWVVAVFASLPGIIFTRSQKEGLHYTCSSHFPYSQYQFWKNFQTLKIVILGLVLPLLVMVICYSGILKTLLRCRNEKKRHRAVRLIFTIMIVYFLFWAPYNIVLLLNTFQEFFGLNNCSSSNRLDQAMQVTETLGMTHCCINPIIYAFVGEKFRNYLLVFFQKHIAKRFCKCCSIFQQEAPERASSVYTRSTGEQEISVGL
T1 sequence (Q12809 whole entry): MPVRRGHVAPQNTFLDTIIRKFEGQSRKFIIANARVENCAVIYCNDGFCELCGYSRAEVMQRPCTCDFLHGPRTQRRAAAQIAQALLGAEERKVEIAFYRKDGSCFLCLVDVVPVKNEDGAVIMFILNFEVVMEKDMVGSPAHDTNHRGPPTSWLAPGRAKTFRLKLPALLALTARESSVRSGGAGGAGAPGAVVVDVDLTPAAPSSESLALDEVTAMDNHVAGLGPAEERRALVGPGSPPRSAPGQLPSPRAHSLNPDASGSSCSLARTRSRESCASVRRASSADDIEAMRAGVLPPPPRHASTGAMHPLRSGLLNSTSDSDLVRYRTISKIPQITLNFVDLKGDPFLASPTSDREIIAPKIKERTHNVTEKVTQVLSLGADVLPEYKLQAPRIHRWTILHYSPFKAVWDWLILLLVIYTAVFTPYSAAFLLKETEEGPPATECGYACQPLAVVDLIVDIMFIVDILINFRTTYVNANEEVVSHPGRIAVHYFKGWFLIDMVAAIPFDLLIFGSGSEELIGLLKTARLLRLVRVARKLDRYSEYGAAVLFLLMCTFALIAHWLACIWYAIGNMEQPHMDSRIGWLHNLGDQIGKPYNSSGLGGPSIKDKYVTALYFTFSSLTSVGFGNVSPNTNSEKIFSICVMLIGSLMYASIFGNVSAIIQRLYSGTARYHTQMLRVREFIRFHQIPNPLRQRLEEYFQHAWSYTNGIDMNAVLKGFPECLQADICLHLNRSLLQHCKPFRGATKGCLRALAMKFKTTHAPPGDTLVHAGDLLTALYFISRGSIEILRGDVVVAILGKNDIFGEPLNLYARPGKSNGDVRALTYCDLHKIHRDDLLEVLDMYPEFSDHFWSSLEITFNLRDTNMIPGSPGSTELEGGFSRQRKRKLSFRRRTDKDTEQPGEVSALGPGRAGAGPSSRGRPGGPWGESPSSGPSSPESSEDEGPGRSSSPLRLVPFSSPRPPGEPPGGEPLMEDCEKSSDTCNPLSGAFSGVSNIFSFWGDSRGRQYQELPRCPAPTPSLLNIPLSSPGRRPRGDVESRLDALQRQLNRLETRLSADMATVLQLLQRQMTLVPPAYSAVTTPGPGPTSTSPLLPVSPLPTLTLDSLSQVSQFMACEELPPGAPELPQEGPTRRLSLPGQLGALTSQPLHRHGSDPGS
Chain of Voltage-gated inwardly rectifying potassium channel KCNH2 (Q12809 whole entry): as above

For orientation: IC50 means the concentration at which inhibition is half-maximal. In data set [1], `O=C(Cc1ccc(F)cc1)NC1CCN(CC[C@H](NC(=O)C2CCC2)c2ccccc2)CC1` came in with an IC50 of 0.7 nM. This counts as sub-nanomolar.

The molecule `Cc1nnc(Cc2ccccc2)n1C1CCN(CC[C@H](NC(=O)C2CCC2)c2ccccc2)CC1` showed a 50% inhibitory concentration (IC50) in data set [1] of 250 nM.

In data set [1], `O=C(N[C@@H](CCN1CCC(n2cnc(Cc3ccccc3)n2)CC1)c1ccccc1)C1CCC1` gave a half-inhibitory concentration (IC50) of 5 nM.

For orientation: inhibition means the drop in the measured response relative to a control, in per cent. What is called pKa is the negative logarithm of the acid dissociation constant. High values mean a weaker acid or stronger base, low ones a stronger acid or weaker base. On to `Cc1nc2ccccc2n1C1CC2COCC(C1)N2CC[C@H](NC(=O)C1CCC1)c1ccccc1` (stereo partly drawn) [OXOGRANATANE], for which the IC50 in data set [1] turned out to be 39 nM. Moreover, 0.3 µM produced 70% inhibition at hERG (KCNH2) [2]. Besides, in data set [3], the pKa is 6.

One may read the IC90 as the concentration needed for an effect of 90%. In turn, `Cc1nnc(C)n1C1CC2CCC(C1)N2CC[C@H](NC(=O)C1CCC1)c1ccccc1` (stereo partly drawn) registered an inhibition at 0.1 µM on hERG (KCNH2) [4] of 10%. The molecule further had a concentration for an effect of 90% (IC90) in data set [5] of 13 nM.

As for `Cc1nc2ccccc2n1C1CC2CCC(C1)N2CC[C@H](NC(=O)C1CCC1)c1ccccc1` (stereo partly drawn), the inhibition at 0.3 µM at hERG (KCNH2) [2] was 80%. Besides, the pKa in data set [3] worked out at 7.8.

`CC(=O)N(CCOc1ccc(NS(C)(=O)=O)cc1)CCc1ccc(NS(C)(=O)=O)cc1` had an Activity in data set [6] of 0.021 µM.

By logD is commonly meant the decadic logarithm of the distribution of all forms, ionised or not, between an organic phase and buffer at a given pH. High values mean a more lipophilic compound, low ones a more hydrophilic compound. Regarding `Cc1nnc(C(C)C)n1C1CC2CCC(C1)N2CC[C@H](NC(=O)CCC(F)(F)F)c1ccccc1` (stereo partly drawn), at hERG (KCNH2) [2], the inhibition at 0.3 µM was 14%. This molecule gave a 90% effect concentration (IC90) in data set [5] of 14 nM. The molecule also gave a logD in data set [7] of 1.8.

As to `Cc1nnc(C)n1C1CCN(CC[C@H](NC(=O)C2CCC2)c2ccccc2)CC1`, the IC50 in data set [1] is 50 nM. Also, the inhibition at 0.1 µM at hERG (KCNH2) [4] stood at 5%.

For `O=C(N[C@@H](CCN1CCC(c2noc(Cc3ccccc3)n2)CC1)c1ccccc1)C1CCC1`, in data set [1], the IC50 turned out to be 20 nM. This molecule returned an inhibition at 0.1 µM on hERG (KCNH2) [4] of 50%.

Turning to `Cc1nnc(C(C)C)n1[C@H]1C[C@H]2CC[C@@H](C1)N2CC[C@H](NC(=O)C1CCC(F)(F)CC1)c1ccccc1` [MARAVIROC], in data set [5], the IC90 is 2 nM.

As for `Cc1nc(C2CCN(CC[C@H](NC(=O)C3CCC3)c3ccccc3)CC2)no1`, the IC50 in data set [1] was 70 nM.

Regarding `Cc1nnc(C(C)C)n1C1CC2CCC(C1)N2CC[C@H](NC(=O)C1CCC1)c1ccccc1` (stereo partly drawn), testing at 0.3 µM on hERG (KCNH2) [2] gave an inhibition of 30%. Also, at 0.1 µM the inhibition on hERG (KCNH2) [4] was 14%. Further, in data set [5], the concentration for an effect of 90% (IC90) turned out to be 8 nM. Moreover, the logD in data set [7] was 1.6.

In the case of `Cc1nnc(C(C)C)n1C1CC2CCC(C1)N2CC[C@H](NC(=O)C1CCCC1)c1ccccc1` (stereo partly drawn), the inhibition at 0.3 µM on hERG (KCNH2) [2] worked out at 18%. Moreover, the 90% effect level in data set [5] (IC90) was put at 2 nM. The molecule also came in with a log distribution coefficient (logD) in data set [7] of 2.1.

Molecule `Cc1nnc(C(C)C)n1[C@@H]1C[C@H]2CC[C@@H](C1)N2CC[C@H](NC(=O)C1CCC(F)(F)CC1)c1ccccc1` [MARAVIROC] returned a logD in data set [7] of 2.1.
